Key:
Assay type in all cases: in vivo
[1] = system: cotton worm (Spodoptera litura); assay: Test Method 3: sprayed cabbage leaves fed to second instar cotton worm; conditions: 120 h, second instar larvae, after 5 days, 25°C, read-out: mortality of insects
Description: (§1) The following tests in the test examples below were conducted at 25°C.
(§2) Cabbage (Brassicae oleracea) seedling (on the developmental stage of the second to third true leaf) is planted in a cup, and the diluted solutions are sprayed into the seedling at a ratio of 20 mL/seedling. Thereafter, the stem and leaf thereof are cut out and then is installed into a cup that is covered with filter paper on the bed of the cup. Five (5) cotton worm (Spodoptera litura) at the second instar larval stage are released into the cup. After 5 days, the number of the surviving insects is counted, and the mortality of insects is calculated by the following equation. [formula]

[2] = system: cotton aphids (Aphis gossypii); assay: Test Method 1: foliar spray on cucumber seedling infested with cotton aphids (Formulation example 1); conditions: 120 h, spray 10 mL/seedling, examined after 5 days, 25°C, read-out: controlling value
[3] = system: diamondback moth (Plutella xylostella); assay: Test Method 4: sprayed cabbage leaves fed to second instar diamondback moth; conditions: 120 h, second instar larvae, after 5 days, 25°C, read-out: mortality of insects
Description: Next, an efficacy of the present compound on controlling harmful arthropods is shown by Test examples. The following tests in the test examples below were conducted at 25°C.
Test compounds are made to a formulation according to a similar method to that described in the Formulation example 1, and thereto is added water containing 0.03 v/v% of Shindain (registered trademark) to prepare a diluted solution containing a prescribed concentration of the test compound.
as §2, with “diamondback moth (Plutella xylostella)” for “cotton worm (Spodoptera litura)”

[4] = system: cotton worm (Spodoptera litura); assay: Test Method 9: sprayed cabbage seedling, third instar cotton worm (Formulation example 5); conditions: 144 h, third instar larvae, after 6 days, 25°C, read-out: controlling value
Description: as §1
(§3) Cabbage (Brassicae oleracea) seedling (on the developmental stage of the third to fourth true leaf) is planted in a cup, and the diluted solutions are sprayed into the seedling at a ratio of 20 mL/seedling. Thereafter, ten (10) cotton worm (Spodoptera litura) at the third instar larval stage are released onto the seedling. After 6 days, the number of the surviving insects is counted, and the mortality of insects is calculated by the following equation. [formula]

[5] = system: cotton aphids (Aphis gossypii); assay: Test Method 11: foliar spray on cucumber seedling infested with cotton aphids (Formulation example 5); conditions: 120 h, spray 10 mL/seedling, examined after 5 days, 25°C, read-out: controlling value
[6] = system: diamondback moth (Plutella xylostella); assay: Test Method 10: sprayed cabbage seedling, third instar diamondback moth (Formulation example 5); conditions: 144 h, third instar larvae, after 6 days, 25°C, read-out: controlling value
Description: as §1
as §3, with “diamondback moth (Plutella xylostella)” for “cotton worm (Spodoptera litura)”

[7] = system: common house mosquitos (Culex pipiens pallens); assay: Test Method 12: mosquito larvae released into diluted solution; conditions: 24 h, last instar larvae, after 1 day, 25°C, read-out: controlling value
Description: as §1
Into the diluted solution, 30 common house mosquitos (Culex pipiens pallens) at the last instar larval stage are released, and after 1 day, the state of the house mosquito larvae is examined, and the mortality of insects is calculated by the following equation. [formula]

| SMILES | mortality at 500 ppm [1] [%] | mortality at 500 ppm [2] [%] | mortality at 500 ppm [3] [%] | mortality at 50 ppm [4] [%] | mortality at 200 ppm [4] [%] | mortality at 50 ppm [5] [%] | mortality at 200 ppm [5] [%] | mortality at 50 ppm [6] [%] | mortality at 200 ppm [6] [%] | mortality at 3.5 ppm [7] [%] |
| --- | --- | --- | --- | --- | --- | --- | --- | --- | --- | --- |
| CCSc1c(C(=O)N(C)c2nc3ccc(F)cc3s2)nc2ccc(I)cn12 [compound 2] | ≥ 80 | ≥ 90 | ≥ 80 | – | – | – | – | – | – | – |
| CCSc1c(C(=O)N(C)c2nc3cc(F)ccc3s2)nc2ccc(I)cn12 [compound 3] | ≥ 80 | – | ≥ 80 | – | – | – | – | – | – | – |
| CCSc1c(C(=O)N(C)c2nc3cccc(F)c3o2)nc2ccc(I)cn12 [compound 18] | – | ≥ 90 | ≥ 80 | – | – | – | – | – | – | – |
| CCS(=O)(=O)c1c(C(=O)N(C)c2nc3cc(F)ccc3s2)nc2ccc(I)cn12 [compound 24] | ≥ 80 | ≥ 90 | ≥ 80 | ≥ 80 | ≥ 80 | ≥ 90 | ≥ 90 | ≥ 80 | ≥ 80 | – |
| CCS(=O)(=O)c1c(C(=O)N(C)c2nc3cccc(Cl)c3s2)nc2ccc(I)cn12 [compound 27] | ≥ 80 | ≥ 90 | – | ≥ 80 | ≥ 80 | ≥ 90 | ≥ 90 | – | – | – |
| CCS(=O)(=O)c1c(C(=O)N(C)c2nc3ccc(C)cc3s2)nc2ccc(I)cn12 [compound 32] | ≥ 80 | – | ≥ 80 | – | – | – | – | ≥ 80 | ≥ 80 | – |
| CCS(=O)(=O)c1c(C(=O)N(C)c2nc3cccc(F)c3o2)nc2ccc(I)cn12 [compound 39] | – | – | ≥ 80 | – | – | – | – | – | – | – |
| CCSc1cccnc1C(=O)N(C)c1nc2cc(C(F)(F)F)ccc2s1 [compound 49] | ≥ 80 | – | ≥ 80 | – | – | – | – | – | – | – |
| CCS(=O)(=O)c1cccnc1C(=O)N(C)c1nc2cc(C(F)(F)F)ccc2o1 [compound 54] | – | ≥ 90 | ≥ 80 | – | – | – | – | – | – | – |
| CCS(=O)(=O)c1cccnc1C(=O)N(C)c1nc2cc(C(F)(F)F)ccc2s1 [compound 55] | – | ≥ 90 | ≥ 80 | – | – | – | – | – | – | – |
| CCS(=O)(=O)c1cc(-c2ccc(C#N)cc2)cnc1C(=O)N(C)c1nc2cc(F)c(F)cc2s1 [compound 60] | – | – | ≥ 80 | – | – | – | – | – | – | – |
| CCSc1c(C(=O)N(C)c2nc3ccc(F)cc3n2C)nc2ccc(I)cn12 [compound 69] | – | ≥ 90 | ≥ 80 | – | – | ≥ 90 | ≥ 90 | – | – | – |
| CCS(=O)(=O)c1c(C(=O)N(C)c2nc3ccc(F)nc3s2)nc2ccc(I)cn12 [compound 75] | ≥ 80 | ≥ 90 | ≥ 80 | – | ≥ 80 | – | ≥ 90 | – | ≥ 80 | – |
| CCS(=O)(=O)c1c(C(=O)N(C)c2nc3ccc(F)cc3n2C)nc2ccc(I)cn12 [compound 78] | ≥ 80 | ≥ 90 | ≥ 80 | – | – | ≥ 90 | ≥ 90 | – | ≥ 80 | – |
| CCS(=O)(=O)c1c(C(=O)N(C)c2nc3cc(F)ccc3n2C)nc2ccc(I)cn12 [compound 79] | ≥ 80 | ≥ 90 | ≥ 80 | – | ≥ 80 | ≥ 90 | ≥ 90 | – | ≥ 80 | – |
| CCS(=O)(=O)c1c(C(=O)N(C)c2nc3cc(F)cc(F)c3s2)nc2ccc(I)cn12 [compound 80] | ≥ 80 | – | ≥ 80 | – | ≥ 80 | – | – | – | ≥ 80 | – |
| CCS(=O)(=O)c1c(C(=O)N(C)c2nc3cc(F)c(Cl)cc3s2)nc2ccc(I)cn12 [compound 81] | – | – | ≥ 80 | – | – | – | – | – | – | – |

| SMILES | mortality at 500 ppm [1] [%] | mortality at 500 ppm [2] [%] | mortality at 500 ppm [3] [%] | mortality at 50 ppm [4] [%] | mortality at 200 ppm [4] [%] | mortality at 50 ppm [5] [%] | mortality at 200 ppm [5] [%] | mortality at 50 ppm [6] [%] | mortality at 200 ppm [6] [%] | mortality at 3.5 ppm [7] [%] |
| --- | --- | --- | --- | --- | --- | --- | --- | --- | --- | --- |
| CCN(C(=O)c1nc2ccc(I)cn2c1S(=O)(=O)CC)c1nc2cc(F)c(F)cc2s1 [compound 96] | ≥ 80 | ≥ 90 | ≥ 80 | – | – | ≥ 90 | ≥ 90 | – | – | – |
| CCS(=O)(=O)c1c(C(=O)N(CC#N)c2nc3cc(F)c(F)cc3s2)nc2ccc(I)cn12 [compound 98] | – | – | ≥ 80 | – | – | – | – | – | – | – |
| C#CCN(C(=O)c1nc2ccc(I)cn2c1S(=O)(=O)CC)c1nc2cc(F)c(F)cc2s1 [compound 99] | – | – | ≥ 80 | – | – | – | – | – | – | – |
| CCS(=O)(=O)c1c(C(=O)N(C)c2nc3cc(F)c(F)cc3s2)nc2ccc(C3CC3)cn12 [compound 102] | ≥ 80 | ≥ 90 | ≥ 80 | ≥ 80 | ≥ 80 | ≥ 90 | ≥ 90 | ≥ 80 | ≥ 80 | – |
| CCS(=O)(=O)c1cc(-c2ccc(F)cn2)cnc1C(=O)N(C)c1nc2cc(F)c(F)cc2s1 [compound 110] | ≥ 80 | – | ≥ 80 | ≥ 80 | ≥ 80 | – | – | ≥ 80 | ≥ 80 | ≥ 90 |
| CCS(=O)(=O)c1cc(-n2cc(Cl)cn2)cnc1C(=O)N(C)c1nc2cc(F)c(F)cc2s1 [compound 112] | ≥ 80 | – | ≥ 80 | ≥ 80 | ≥ 80 | – | – | – | ≥ 80 | – |
| CCS(=O)(=O)c1cccnc1C(=O)N(C)c1nc2cc(F)c(F)cc2s1 [compound 114] | ≥ 80 | – | ≥ 80 | – | – | – | – | – | – | – |
| CCS(=O)(=O)c1cc(C(F)(F)F)ccc1C(=O)N(C)c1nc2cc(F)c(F)cc2s1 [compound 120] | ≥ 80 | – | ≥ 80 | ≥ 80 | ≥ 80 | – | – | ≥ 80 | ≥ 80 | – |
| CCCOc1cnc(C(=O)N(C)c2nc3cc(F)c(F)cc3s2)c(S(=O)(=O)CC)c1 [compound 126] | ≥ 80 | – | ≥ 80 | ≥ 80 | ≥ 80 | – | ≥ 90 | – | ≥ 80 | – |
| CCS(=O)(=O)c1cc(OC(C)(C)C)cnc1C(=O)N(C)c1nc2cc(F)c(F)cc2s1 [compound 128] | ≥ 80 | ≥ 90 | ≥ 80 | ≥ 80 | ≥ 80 | – | ≥ 90 | ≥ 80 | ≥ 80 | – |
| CCS(=O)(=O)c1ccc(NC(=O)OC(C)(C)C)nc1C(=O)N(C)c1nc2cc(F)c(F)cc2s1 [compound 129] | ≥ 80 | – | ≥ 80 | – | ≥ 80 | – | – | – | ≥ 80 | ≥ 90 |
| CCS(=O)(=O)c1ccc(-c2ccccn2)nc1C(=O)N(C)c1nc2cc(F)c(F)cc2s1 [compound 133] | ≥ 80 | – | ≥ 80 | ≥ 80 | ≥ 80 | – | ≥ 90 | – | ≥ 80 | – |
| CCS(=O)(=O)c1ccc(NCCCN(C)C)nc1C(=O)N(C)c1nc2cc(F)c(F)cc2s1 [compound 136] | – | – | ≥ 80 | – | – | – | – | – | ≥ 80 | ≥ 90 |
| CCS(=O)(=O)c1ccc(Nc2ccc(C)cc2)nc1C(=O)N(C)c1nc2cc(F)c(F)cc2s1 [compound 137] | – | – | ≥ 80 | – | – | – | – | – | – | – |
| CCS(=O)(=O)c1c(C(=O)N(C)c2nc3cc(F)c(F)cc3s2)nc(Br)n1C [compound 140] | – | – | ≥ 80 | – | – | – | – | – | ≥ 80 | – |
| CCS(=O)(=O)c1c(C(=O)N(C)c2nc3cc(F)c(F)cc3s2)nc(-c2cnn(C(F)F)c2)n1C [compound 143] | ≥ 80 | – | ≥ 80 | – | – | – | – | – | – | – |
| CCS(=O)(=O)c1c(C(=O)N(C)c2nc3cc(Cl)c(F)cc3s2)nn(C)c1C1CC1 [compound 145] | – | – | ≥ 80 | – | – | – | – | – | ≥ 80 | – |

Source: patent publication EP4722205A1, “HETEROCYCLIC COMPOUND AND NOXIOUS ARTHROPOD-CONTROLLING COMPOSITION CONTAINING SAME” (Sumitomo Chemical Company, Limited, priority 2023, dated 2024)
